Data taken from ChEMBL document CHEMBL5665443, “Enzyme Inhibitor Single Concentration assay results for EUbOPEN Chemogenomics Library” (2024).

Key:
Conditions in all cases: Hit No
[1] = biological target: N-glycosylase/DNA lyase (Homo sapiens) (UniProt O15527);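 note: OGG1 cleavage of a quenched duplex DNA oligonucleotide, coupled to APE1 for strand incision, read as fluorescence at 594 nm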
Description: Inhibition of OGG1 by quantifying inhibition of OGG1-mediated cleavage and dissociation of quenched duplex DNA oligonucleotides, measured as fluorescence at 594 nm. To generate a functional strand incision and increase turn-over this assay is coupled to APE1.

[2] = biological target: T1, Single-strand selective monofunctional uracil DNA glycosylase (Homo sapiens) (UniProt Q53HV7);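 note: enzymatic SMUG1 assay coupled with APE1, reading fluorescence at 594 nm released when a quenched double-stranded DNA oligonucleotide substrate is cleaved and separated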
T1 sequence (whole entry): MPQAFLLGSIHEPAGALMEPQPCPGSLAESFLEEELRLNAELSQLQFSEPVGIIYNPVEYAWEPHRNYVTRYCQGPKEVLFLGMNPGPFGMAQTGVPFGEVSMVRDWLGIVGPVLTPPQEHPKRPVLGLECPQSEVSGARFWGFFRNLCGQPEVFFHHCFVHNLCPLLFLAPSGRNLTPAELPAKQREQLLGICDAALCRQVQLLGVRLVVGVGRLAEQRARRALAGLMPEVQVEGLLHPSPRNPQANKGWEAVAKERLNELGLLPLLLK
Description: Inhibition of SMUG1 by quantifying inhibition of SMUG1-mediated cleavage and dissociation of quenched duplex DNA oligonucleotides, measured as fluorescence at 594 nm. To generate a functional strand incision and increase turn-over this assay is coupled to APE1.

[3] = biological target: Uracil-DNA glycosylase (Homo sapiens) (UniProt P13051);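 note: UNG excision on a quenched double-stranded DNA oligo probe, with APE1 added for strand incision and turnover, read as fluorescence at 594 nm as strands separate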
Description: Inhibition of UNG by quantifying inhibition of UNG-mediated cleavage and dissociation of quenched duplex DNA oligonucleotides, measured as fluorescence at 594 nm. To generate a functional strand incision and increase turn-over this assay is coupled to APE1.

[4] = biological target: T2, Endonuclease 8-like 2 (Homo sapiens) (UniProt Q969S2);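 note: fluorescence at 594 nm reports NEIL2 cutting and release of a quenched double-stranded DNA oligo substrate, reduced signal read as inhibition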
T2 sequence (whole entry): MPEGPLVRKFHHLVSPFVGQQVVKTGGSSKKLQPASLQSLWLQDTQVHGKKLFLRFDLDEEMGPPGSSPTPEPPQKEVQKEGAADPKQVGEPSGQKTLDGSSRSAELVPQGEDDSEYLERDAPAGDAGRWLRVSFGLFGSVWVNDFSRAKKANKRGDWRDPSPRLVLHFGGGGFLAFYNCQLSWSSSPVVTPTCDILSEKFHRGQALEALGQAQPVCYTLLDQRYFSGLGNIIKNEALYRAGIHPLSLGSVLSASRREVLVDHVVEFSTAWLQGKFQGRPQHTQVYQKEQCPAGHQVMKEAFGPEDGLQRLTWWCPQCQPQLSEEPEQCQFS
Description: Inhibition of NEIL2 by quantifying inhibition of NEIL2-mediated cleavage and dissociation of quenched duplex DNA oligonucleotides, measured as fluorescence at 594 nm.

[5] = biological target: G/T mismatch-specific thymine DNA glycosylase (Homo sapiens) (UniProt Q13569);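 note: human TDG cleavage of quenched duplex DNA oligonucleotides coupled to APE1, strand release read as fluorescence at 594 nm, inhibition of TDG activity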
Description: Inhibition of TDG by quantifying inhibition of TDG-mediated cleavage and dissociation of quenched duplex DNA oligonucleotides, measured as fluorescence at 594 nm. To generate a functional strand incision and increase turn-over this assay is coupled to APE1.

[6] = biological target: T3, Adenine DNA glycosylase (Homo sapiens) (UniProt Q9UIF7);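 note: human MUTYH activity read as 594 nm fluorescence from cleavage and release of a quenched DNA duplex, coupled with APE1 for strand incision, lower signal meaning inhibition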
T3 sequence (whole entry): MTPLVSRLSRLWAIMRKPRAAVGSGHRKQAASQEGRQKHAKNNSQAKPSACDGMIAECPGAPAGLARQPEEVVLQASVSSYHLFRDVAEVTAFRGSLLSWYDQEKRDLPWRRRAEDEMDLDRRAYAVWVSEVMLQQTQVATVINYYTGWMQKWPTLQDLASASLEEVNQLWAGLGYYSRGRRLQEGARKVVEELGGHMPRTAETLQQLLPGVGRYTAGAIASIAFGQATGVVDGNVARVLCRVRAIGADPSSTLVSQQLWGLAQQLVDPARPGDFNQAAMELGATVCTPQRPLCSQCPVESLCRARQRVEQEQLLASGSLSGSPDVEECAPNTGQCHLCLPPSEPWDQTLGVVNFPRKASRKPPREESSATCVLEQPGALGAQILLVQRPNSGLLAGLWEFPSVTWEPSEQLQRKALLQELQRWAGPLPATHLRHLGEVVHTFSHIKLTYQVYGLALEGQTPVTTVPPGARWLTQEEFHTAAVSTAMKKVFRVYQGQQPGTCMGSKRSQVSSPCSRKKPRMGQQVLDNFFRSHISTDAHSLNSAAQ
Description: Inhibition of MUTYH by quantifying inhibition of MUTYH-mediated cleavage and dissociation of quenched duplex DNA oligonucleotides, measured as fluorescence at 594 nm. To generate a functional strand incision and increase turn-over this assay is coupled to APE1.

[7] = biological target: Methyl-CpG-binding domain protein 4 (Homo sapiens) (UniProt O95243);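 note: MBD4 activity read as fluorescence at 594 nm from cleavage and release of a quenched duplex DNA oligonucleotide, with APE1 coupled to incise the strand and raise turnover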
Description: Inhibition of MBD4 by quantifying inhibition of MBD4-mediated cleavage and dissociation of quenched duplex DNA oligonucleotides, measured as fluorescence at 594 nm. To generate a functional strand incision and increase turn-over this assay is coupled to APE1.

[8] = biological target: Endonuclease 8-like 1 (Homo sapiens) (UniProt Q96FI4);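 note: fluorescence at 594 nm from quenched duplex DNA oligonucleotides released by NEIL1 cleavage and strand separation, reported as reduction of this enzyme activity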
Description: Inhibition of NEIL1 by quantifying inhibition of NEIL1-mediated cleavage and dissociation of quenched duplex DNA oligonucleotides, measured as fluorescence at 594 nm.

[9] = Compound Concentration 10.0 uM, tested as the 2H-labelled form

Sequence of Uracil-DNA glycosylase (Homo sapiens) (P13051 whole entry): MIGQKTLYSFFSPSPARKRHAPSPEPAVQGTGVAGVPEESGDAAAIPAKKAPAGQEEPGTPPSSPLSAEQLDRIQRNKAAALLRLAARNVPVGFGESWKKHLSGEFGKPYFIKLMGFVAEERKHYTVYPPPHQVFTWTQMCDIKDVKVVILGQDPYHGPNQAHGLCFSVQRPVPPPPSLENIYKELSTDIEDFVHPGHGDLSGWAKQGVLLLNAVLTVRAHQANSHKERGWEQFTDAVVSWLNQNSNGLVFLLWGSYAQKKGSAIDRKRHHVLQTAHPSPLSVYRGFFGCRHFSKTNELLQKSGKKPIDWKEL
Sequence of Endonuclease 8-like 1 (Homo sapiens) (Q96FI4 whole entry): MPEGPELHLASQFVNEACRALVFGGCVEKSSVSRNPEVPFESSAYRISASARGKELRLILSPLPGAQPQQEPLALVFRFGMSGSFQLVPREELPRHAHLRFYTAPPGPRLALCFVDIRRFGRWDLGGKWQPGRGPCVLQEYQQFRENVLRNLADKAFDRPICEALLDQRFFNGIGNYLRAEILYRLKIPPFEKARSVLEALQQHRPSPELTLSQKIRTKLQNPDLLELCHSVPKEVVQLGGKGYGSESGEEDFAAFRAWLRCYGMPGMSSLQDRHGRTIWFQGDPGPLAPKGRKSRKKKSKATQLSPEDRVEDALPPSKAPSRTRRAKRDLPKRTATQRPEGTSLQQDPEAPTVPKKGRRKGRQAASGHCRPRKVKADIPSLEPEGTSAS
Sequence of Methyl-CpG-binding domain protein 4 (Homo sapiens) (O95243 whole entry, the tested form may be a part): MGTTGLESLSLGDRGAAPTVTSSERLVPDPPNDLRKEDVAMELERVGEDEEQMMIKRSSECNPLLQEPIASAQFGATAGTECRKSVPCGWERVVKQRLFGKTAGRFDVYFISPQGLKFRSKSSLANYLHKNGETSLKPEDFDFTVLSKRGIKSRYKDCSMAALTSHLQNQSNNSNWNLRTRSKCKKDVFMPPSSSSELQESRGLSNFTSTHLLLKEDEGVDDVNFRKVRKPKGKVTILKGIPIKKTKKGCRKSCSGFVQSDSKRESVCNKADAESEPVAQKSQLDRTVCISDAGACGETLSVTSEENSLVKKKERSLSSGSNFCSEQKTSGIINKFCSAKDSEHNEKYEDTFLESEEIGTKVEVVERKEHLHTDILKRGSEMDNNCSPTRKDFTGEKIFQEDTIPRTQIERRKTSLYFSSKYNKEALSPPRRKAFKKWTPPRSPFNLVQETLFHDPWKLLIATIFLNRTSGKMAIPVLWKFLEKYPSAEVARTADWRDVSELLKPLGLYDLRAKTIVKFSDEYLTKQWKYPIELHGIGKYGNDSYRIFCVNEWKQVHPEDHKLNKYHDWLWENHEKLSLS
Sequence of N-glycosylase/DNA lyase (Homo sapiens) (O15527 whole entry): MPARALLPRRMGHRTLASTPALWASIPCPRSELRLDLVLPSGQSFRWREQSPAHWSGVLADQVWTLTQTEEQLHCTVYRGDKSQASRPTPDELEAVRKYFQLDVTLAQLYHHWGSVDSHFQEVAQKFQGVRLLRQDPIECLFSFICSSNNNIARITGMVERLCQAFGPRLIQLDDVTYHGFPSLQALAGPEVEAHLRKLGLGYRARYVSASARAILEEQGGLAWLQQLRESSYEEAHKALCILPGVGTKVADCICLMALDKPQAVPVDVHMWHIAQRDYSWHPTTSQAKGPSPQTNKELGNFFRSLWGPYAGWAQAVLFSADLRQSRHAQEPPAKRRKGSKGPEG
Sequence of G/T mismatch-specific thymine DNA glycosylase (Homo sapiens) (Q13569 whole entry): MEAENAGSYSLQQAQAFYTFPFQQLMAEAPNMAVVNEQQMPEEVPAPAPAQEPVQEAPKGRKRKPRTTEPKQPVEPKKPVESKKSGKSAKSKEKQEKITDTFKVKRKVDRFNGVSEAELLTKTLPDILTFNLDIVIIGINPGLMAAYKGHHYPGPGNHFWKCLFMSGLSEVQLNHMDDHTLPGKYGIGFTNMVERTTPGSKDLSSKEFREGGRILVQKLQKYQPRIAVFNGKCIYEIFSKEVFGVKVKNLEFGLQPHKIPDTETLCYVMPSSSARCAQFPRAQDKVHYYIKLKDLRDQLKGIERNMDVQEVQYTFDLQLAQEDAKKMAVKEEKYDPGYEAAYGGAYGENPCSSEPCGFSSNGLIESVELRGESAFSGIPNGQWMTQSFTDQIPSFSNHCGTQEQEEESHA

| SMILES | inhibition ([1]; Compound Concentration 10.0 uM) | inhibition ([2]; Compound Concentration 10.0 uM) | inhibition ([3]; Compound Concentration 10.0 uM) | inhibition ([4]; Compound Concentration 10.0 uM) | inhibition ([5]; Compound Concentration 10.0 uM) | inhibition ([6]; Compound Concentration 10.0 uM) | inhibition ([7]; Compound Concentration 10.0 uM) | inhibition ([8]; Compound Concentration 10.0 uM) | further results |
| --- | --- | --- | --- | --- | --- | --- | --- | --- | --- |
| COc1cc2c(cc1CC=C(C)C)C(=O)C[C@@H](c1ccc(O)cc1)O2 | 19.1% | 19.4% | 0.826% | -5.59% | 49.3% | -5.24% | 61.9% | – | – |
| CCCn1c(=O)c2[nH]c(-c3cnn(Cc4cccc(C(F)(F)F)c4)c3)nc2n(CC)c1=O | -1.7% | 4.62% | – | -0.234% | -4.73% | -1.26% | -7.87% | -6.43% | – |
| Cc1ccc(Cn2nc(C(=O)N[C@@H]3C(C)(C)[C@@H]4CC[C@@]3(C)C4)cc2-c2ccc(Cl)c(C)c2)cc1 | -0.971% | -0.0818% | – | 7% | 21.7% | -0.363% | -2.75% | 10.9% | – |
| C[C@@H]1CN(c2ncc(Cl)c(Nc3ccc4c(c3)n(CCC(C)(C)O)c(=O)n4C)n2)C[C@H](C)C1(F)F | -2.08% | 18% | 9.4% | -9.67% | 57.5% | 2.19% | 66.3% | – | – |
| CC1(C)Cn2nc(-c3ccc(F)cn3)c(-c3ccnc4[nH]ncc34)c2CO1 | – | – | – | – | – | – | – | – | inhibition [1, 9]: -6.31%; inhibition [2, 9]: 12.7%; inhibition [3, 9]: 0.65%; inhibition [4, 9]: -8.4%; inhibition [5, 9]: 99.8%; inhibition [6, 9]: -5.13%; inhibition [7, 9]: 55.2% |
| Cc1c(OCc2cccc(-c3ccc(C(=O)O)cc3)c2)cc2c(c1C)C(=O)C(C1CCCC1)C2 (stereo not drawn) | 0.771% | -3.76% | – | -2.23% | -4.78% | -1.13% | -8.74% | -5.54% | – |
| CC(C)(O)c1cncc(-c2nc3ccc(F)cc3n2C2CC2)c1 | 8.25% | 1.08% | -3.32% | – | 50.2% | 11.5% | 59.6% | – | – |
| O=C(Nc1ccc(-c2ccnc(Nc3ccc(N4CCOCC4)cc3)n2)cc1)[C@@H]1CCCN1 | – | – | – | – | – | – | – | – | inhibition ([1]; Compound Concentration 1.0 uM): 1.3%; inhibition ([2]; Compound Concentration 1.0 uM): 24.9%; inhibition ([3]; Compound Concentration 1.0 uM): 3.18%; inhibition ([5]; Compound Concentration 1.0 uM): 58.2%; inhibition ([6]; Compound Concentration 1.0 uM): 14.9%; inhibition ([7]; Compound Concentration 1.0 uM): -0.777%; inhibition ([8]; Compound Concentration 1.0 uM): 5.95% |
| O=C(Nc1cccnn1)N1CC(C/C=C/c2cncc(Oc3ccc(C(F)(F)F)cn3)n2)C1 | -7.39% | 18.1% | -1.71% | – | 97.9% | -2.62% | 63.3% | – | – |
| COc1cc2c(CCNC(C)=O)c[nH]c2cc1Cl | -6.18% | 0.936% | – | 0.0156% | 4.32% | -5.23% | 5.14% | -9.99% | – |
| CC(C)c1cc(Nc2nc(N3CCC[C@H](N)C3)ncc2C(N)=O)cc(C(C)C)n1 | – | – | – | – | – | – | – | – | inhibition ([2]; Compound Concentration 1.0 uM): 11.3%; inhibition ([3]; Compound Concentration 1.0 uM): 1.59%; inhibition ([4]; Compound Concentration 1.0 uM): 11.5%; inhibition ([5]; Compound Concentration 1.0 uM): 25.2%; inhibition ([6]; Compound Concentration 1.0 uM): 0.673%; inhibition ([7]; Compound Concentration 1.0 uM): -6.11%; inhibition ([8]; Compound Concentration 1.0 uM): -3.69% |
| CN([C@@H]1CCc2c(CC(=O)O)c3cc(S(C)(=O)=O)ccc3n2C1)S(=O)(=O)c1ccc(F)cc1 | -10% | 11.2% | 2.31% | – | 46% | -3.16% | 53.8% | – | – |
| C(#Cc1cccc(CN2CCOCC2)c1)CCN1CCCCC1 | -4.46% | -7.54% | – | -2.73% | -1.72% | -3.69% | 0.0339% | 11.2% | – |
| N#Cc1ccc(Nc2ccc3[nH]c(=O)[nH]c3c2)c(Cl)c1 | – | – | – | – | – | – | – | – | inhibition ([1]; Compound Concentration 1.0 uM): -3.21%; inhibition ([2]; Compound Concentration 1.0 uM): 11.9%; inhibition ([3]; Compound Concentration 1.0 uM): 1.6%; inhibition ([5]; Compound Concentration 1.0 uM): 38.3%; inhibition ([6]; Compound Concentration 1.0 uM): 7.43%; inhibition ([7]; Compound Concentration 1.0 uM): 63.1% |
| NC[C@@H]1O[C@H](C23CC4CC(CC(C4)C2)C3)Cc2c1ccc(O)c2O | – | 12.4% | -2.15% | 24.7% | 31.8% | 23.1% | -8.04% | 18.5% | – |
| CN(c1ccnc(CNc2nc(Nc3ccc4c(c3)CC(=O)N4)ncc2C(F)(F)F)n1)S(C)(=O)=O | – | – | – | – | – | – | – | – | inhibition ([2]; Compound Concentration 1.0 uM): 15.5%; inhibition ([3]; Compound Concentration 1.0 uM): 0.644%; inhibition ([4]; Compound Concentration 1.0 uM): -6.14%; inhibition ([5]; Compound Concentration 1.0 uM): 72%; inhibition ([6]; Compound Concentration 1.0 uM): 1.9%; inhibition ([7]; Compound Concentration 1.0 uM): 26.2%; inhibition ([8]; Compound Concentration 1.0 uM): 1.52% |
| Cc1c(NC(=O)c2cc(C(N)=O)nc3cc(F)ccc23)c(C(F)(F)F)nn1Cc1ccc(C(C)(C)C)cc1 | – | – | – | – | – | – | – | – | inhibition ([1]; Compound Concentration 1.0 uM): -8.67%; inhibition ([2]; Compound Concentration 1.0 uM): 16.4%; inhibition ([3]; Compound Concentration 1.0 uM): 0.116%; inhibition ([5]; Compound Concentration 1.0 uM): 55.8%; inhibition ([6]; Compound Concentration 1.0 uM): 11.6%; inhibition ([7]; Compound Concentration 1.0 uM): 59.5%; inhibition ([8]; Compound Concentration 1.0 uM): -8.32% |
| CCc1cccc(CC)c1NC(=O)c1nn(C)c2c1CCc1cnc(Nc3ccc(C(=O)NC4CCN(C)CC4)cc3OC(F)(F)F)nc1-2 | – | 13.4% | 2.73% | 13.7% | 38.9% | -6.43% | 12.9% | 2.12% | – |
| CCC(=O)Nc1cccc(Oc2nc(Nc3ccc(N4CCN(C)CC4)cc3OC)ncc2Cl)c1 | – | 21.8% | -2.02% | -8.65% | 56.8% | -2.48% | -9.91% | -1.18% | – |
| Cc1cnc(-c2cc(Cl)ccc2F)cc1-n1c(=O)n(CC(N)=O)c2ccccc21 | -7.14% | 7.03% | 1.32% | – | 23.2% | -6.05% | 36.9% | -5.78% | – |
| O=C(Cc1ccccc1)Nc1nnc(N2C[C@H]3C[C@@H]2CN3c2cccnn2)s1 | – | – | – | – | – | – | – | – | inhibition ([1]; Compound Concentration 1.0 uM): 0.672%; inhibition ([2]; Compound Concentration 1.0 uM): 13.8%; inhibition ([3]; Compound Concentration 1.0 uM): 2.12%; inhibition ([5]; Compound Concentration 1.0 uM): 47.1%; inhibition ([6]; Compound Concentration 1.0 uM): -1.58%; inhibition ([7]; Compound Concentration 1.0 uM): 62%; inhibition ([8]; Compound Concentration 1.0 uM): 2.13% |
